From patent publication US20090017103A1, “Antisense oligonucleotides for prevention of metastasis formation of cancer cells” (priority 2003, published 2009)
Marks after values point to notes of the source that are not given here.

Tests used:
Type in all cases: cell-based, human
osteopontin = test: Western blot of osteopontin expression after exposure to ASOs; conditions: MDA-MB231, lipofectamine, 10 μM
osteonectin = test: Western blot of osteonectin expression after exposure to ASOs; conditions: for osteonectin expression in relation to untreated control (100%): single exposure, lipofectamine, 10 μM
[1] = test system: MDA-MB-231 breast cancer cells; test: Clonogenicity assay (colony formation); conditions: for % Control / Mean colony no.: Experiment II, single treatment; for Mean colony no.: control 705; for inhibition of colony formation (colony growth inhibition): single exposure
Protocol: For determining the response of MDA-MB-231 colony formation to exposure with antisense oligonucleotides and erucylphospho-NNN-trimethylpropanolamine (ErPC3) the following procedure was used. MDA-MB-231 cells were treated for various periods of time (see below), harvested and counted. Cells (5000) were then transferred into semi-solid medium containing 0.8t RPMI-methylcellulose and 30% FBS. Cells were plated onto 3.5 cm Petri-dishes (1 ml/dish) (NUNC, Wiesbaden, Germany) and usual cell culture conditions (37° C., 5% CO2 in humidified air) were applied. Colony formation (clusters of 30 or more cells) was visualized by staining with 3-[4,5-dimethylthiazol-2-yl]-2,5-diphenyltetrazolium-bromide (MTT; Serva, Heidelberg, Germany) and the resulting dark blue colonies were scored by an inverted microscope after 5-7 days. At least three dishes per treatment protocol were used.
Pending on the duration of treatment, 1×10^5-3×10^5 cells were transferred onto 6 well plates (Nunc, Wiesbaden, Germany) and grown for 24 h. For transfection, ASO stock solutions were prepared in medium without FBS. According to the protocol of the manufacturer, the respective ASO stock solution was mixed with lipofectamine to allow ASO-liposome complexes to form. To 200 μl medium containing ASO quantities resulting in 10 μM (Western blot and in vivo model) and in 5, 10, or 20 μM (clonogenicity assay) final ASO-concentrations, an equal volume of medium without FBS was added containing 5, 10, or 20 μl lipofectamine, respectively. In addition to the ASO treatment, a NSO control (20 μM final concentration with 20 μl lipofectamine) and a lipofectamine control (20 μl) were used. […] After 12 h the medium was changed, and cells were further grown for 48-72 h. In the case of a sequential combination treatment this first cycle was repeated with the respective combination partner.
The alkylphosphocholine ErPC3 was synthesized and provided by Prof. H. Eibl (MPI of Biophysical Chemistry, Göttingen, FRG). For treating MDA-MB-231 cells, ErPC3 which was kept as stock solution in ethanol and PBS (10 mM; ratio of diluents 1:1; V:V), was diluted in PBS resulting in final concentrations of 10, 14, and 20 μM. The medium containing ErPC3 was changed after 24 h in all experiments and the cells were further grown for 48-72 h without ErPC3 (for details of sequential exposure see below).
Sequential combination treatment consisted of two or three treatment cycles. The two cycle treatment started either with the ASO and was followed by ErPC3 or was performed with the reverse sequence. The three cycle treatment started either with two cycles of ASO followed by ErPC3 or an initial exposure to ErPC3 was followed by two cycles with an ASO.
Colony counts are presented as mean with corresponding standard deviation. For comparison of incidences between treatment groups the x^2 test was used and for comparison of the lesion sizes the Kruskal-Wallis test was applied. P values≦0.05 were considered significant. Predicted theoretical values of combinations were calculated according to the equation: C=a×b/100, where a and b are colony counts in percent of untreated control obtained in response to single agents. For each concentration applied theoretical values were calculated and compared with the real value of the combination. In addition, isobologram and multiple drug effect analysis was examined by a suitable program (CalcuSyn, Biosoft, Ferguson, USA) to study the nature of the interaction observed. For this purpose, the dose-effect curve for each drug alone was determined based on the experimental observations using the median-effect principle; the combination index (CI) for each combination was then calculated according to the following equation:
CI=(D)1/(Dx)1+(D)2/(Dx)2+(D1)×(D2)/(Dx)1×(Dx)2
where (D)1 and (D)2 are the doses of drug 1 and drug 2 that have x effect when used in combination and (Dx)1 and (Dx)2 are the doses of drug 1 and drug 2 that have the same x effect when used alone. […]

[2] = MDA-MB231^F (growing without FBS)

Substance: 5′-GGTCTGCGAAACTTCTTAGA-3′ [ASO-OPN-9]
- osteopontin expression in relation to untreated control (100%) (osteopontin; twofold exposure): 74%

Substance: 5′-GTTCAGGTCCTGGGCAACGG-3 (antisense GTTCAGGTCCTGGGCAACGG; all phosphorothioate, sugars by position and methylation of C not given here) [ASO-OPN-3]
- osteopontin expression in relation to untreated control (100%) (osteopontin; single exposure): 32%
- osteopontin expression in relation to untreated control (100%) (osteopontin; twofold exposure): 38%

Substance: 5′-ATGTGGCCACAGCATCTGGG-3′ (antisense ATGTGGCCACAGCATCTGGG; all phosphorothioate, sugars by position and methylation of C not given here) [ASO-OPN-8]
- osteopontin expression in relation to untreated control (100%) (osteopontin; single exposure): 48%
- osteopontin expression in relation to untreated control (100%) (osteopontin; twofold exposure): 97%

Substance: 5′-TCAGGTCTGCGAAACTTCTT-3′ [ASO-OPN-10]
- osteopontin expression in relation to untreated control (100%) (osteopontin; twofold exposure): 86%

Substance: 5′-GGGGGCTGGGCAGCTGGTGG-3′ (antisense GGGGGCTGGGCAGCTGGTGG; all phosphorothioate, sugars by position and methylation of C not given here) [ASO-ON-3]
- osteonectin expression in relation to untreated control (100%) (osteonectin; MDA-MB231): 25%
- osteonectin expression in relation to untreated control (100%) (osteonectin; [2]): 22%
- osteonectin expression in relation to untreated control (100%) (osteonectin; MDA-MB435s): 29%
- decrease of osteonectin (osteonectin; MDA-MB-231 cells): 75%
- maximum inhibition of protein expression / suppression of protein level (ON) (osteonectin; MDA-MB-231 cells, Western blot): 75%
- % Control ([1]; 5 μM): 92%
- Mean colony no. ([1]; 5 μM): 648^6)
- % Control ([1]; 10 μM): 82%
- Mean colony no. ([1]; 10 μM): 576^7)
- % Control ([1]; 20 μM): 73%
- Mean colony no. ([1]; 20 μM): 514
- inhibition of colony formation (colony growth inhibition) ([1]; 5 μM): 8%
- inhibition of colony formation (colony growth inhibition) ([1]; 10 μM): 14%
- inhibition of colony formation (colony growth inhibition) ([1]; 20 μM): 27%
- inhibition of colony formation (colony growth inhibition) ([1]; 20 μM, listed as ASO-ON-03, 20 µM): 21%

Substance: 5′-GTGGCCACAGCATCTGGGTA-3′ [ASO-OPN-7] (antisense GTGGCCACAGCATCTGGGTA; all phosphorothioate, sugars by position and methylation of C not given here)
- osteopontin expression in relation to untreated control (100%) (osteopontin; single exposure): 31%
- osteopontin expression in relation to untreated control (100%) (osteopontin; twofold exposure): 69%

Substance: 5′-GAATCCGGTACTGTGGAAGG-3′ (antisense GAATCCGGTACTGTGGAAGG; all phosphorothioate, sugars by position and methylation of C not given here) [ASO-ON-8]
- osteonectin expression in relation to untreated control (100%) (osteonectin; MDA-MB231): 54%
- osteonectin expression in relation to untreated control (100%) (osteonectin; [2]): 38%
- osteonectin expression in relation to untreated control (100%) (osteonectin; MDA-MB435s): 46%

Substance: 5′-ACACTAACTTAAAAAACAAA-3′ (antisense ACACTAACTTAAAAAACAAA; all phosphorothioate, sugars by position and methylation of C not given here) [ASO-OPN-5]
- osteopontin expression in relation to untreated control (100%) (osteopontin; single exposure): 43%
- osteopontin expression in relation to untreated control (100%) (osteopontin; twofold exposure): 80%

Substance: 5′-TTCAGGTCCTGGGCAACGGG-3′ [ASO-OPN-2]
- osteopontin expression in relation to untreated control (100%) (osteopontin; single exposure): 45%
- osteopontin expression in relation to untreated control (100%) (osteopontin; twofold exposure): 60%

Substance: 5′-GTGGCCACAGCATCTGGGTA-3′ [ASO-OPN-6] (antisense GTGGCCACAGCATCTGGGTA; all phosphorothioate, sugars by position and methylation of C not given here)
- osteopontin expression in relation to untreated control (100%) (osteopontin; single exposure): 45%
- osteopontin expression in relation to untreated control (100%) (osteopontin; twofold exposure): 68%

Substance: 5′-CAAACATTTTAAACATTGGG-3′ (antisense CAAACATTTTAAACATTGGG; all phosphorothioate, sugars by position and methylation of C not given here) [ASO-ON-9]
- osteonectin expression in relation to untreated control (100%) (osteonectin; MDA-MB231): 37%
- osteonectin expression in relation to untreated control (100%) (osteonectin; [2]): 21%
- osteonectin expression in relation to untreated control (100%) (osteonectin; MDA-MB435s): 49%

Substance: 5′-CTCATGGTAGTGAGTTTTCC-3′ (antisense CTCATGGTAGTGAGTTTTCC; all phosphorothioate, sugars by position and methylation of C not given here) [ASO-OPN-1]
- osteopontin expression in relation to untreated control (100%) (osteopontin; single exposure): 25^2)3) %
- osteopontin expression in relation to untreated control (100%) (osteopontin; twofold exposure): 34^2)3) %

Substance: 5′-ATGCGCAGGGGGAATTCGGT (antisense ATGCGCAGGGGGAATTCGGT; all phosphorothioate, sugars by position and methylation of C not given here) [ASO-ON-4]
- osteonectin expression in relation to untreated control (100%) (osteonectin; MDA-MB231): 50%
- osteonectin expression in relation to untreated control (100%) (osteonectin; [2]): 31%
- osteonectin expression in relation to untreated control (100%) (osteonectin; MDA-MB435s): 62%

Substance: 5′-TTGAAGTTTCTCTTGATTAA-3′ (antisense TTGAAGTTTCTCTTGATTAA; all phosphorothioate, sugars by position and methylation of C not given here) [ASO-ON-10]
- osteonectin expression in relation to untreated control (100%) (osteonectin; MDA-MB231): 46%
- osteonectin expression in relation to untreated control (100%) (osteonectin; [2]): 35%
- osteonectin expression in relation to untreated control (100%) (osteonectin; MDA-MB435s): 46%
